Data reported in US8802240B2, “Uses of formulations of thyroid hormone analogs and nanoparticulate forms thereof to increase chemosensitivity and radiosensitivity in tumor or cancer cells” (Nanopharmaceuticals LLC, priority 2011, dated 2014).
“Also recorded” adds a separate entry of the source. Read-outs that look alike come from different tables or passages of the source.

Experiments:
ERK1/2 = assay: MAPK activation in ECV304 cells (immunoblot of nuclear phosphorylated ERK1/2); type: cell-based; settings: for effect on T4-induced ERK1/2 activation (in words): PD 98059 30 μmol/L or CGP41251 100 nmol/L for 30 minutes, then 10^−7 M T4 for 15 minutes
Experimental: ECV304 endothelial cells were cultured in M199 medium with 0.25% hormone-depleted serum 13 for 2 days. […] Nuclear fractions were prepared from all samples by the method reported previously (see Li et al., Carcinogenesis 29:62-69 (2008)), the proteins separated by polyacrylamide gel electrophoresis, and transferred to membranes for immunoblotting with antibody to phosphorylated ERK 1/2.

V-79 cells = settings: cited from earlier work
ECV304 endothelial cells = assay: FGF2 release from ECV304 endothelial cells (ELISA); type: cell-based
Experimental: ECV304 endothelial cells were cultured in M199 medium supplemented with 10% fetal bovine serum. […] After 72 hours, the supernatants were harvested and assays for FGF performed without dilution using a commercial ELISA system (R&D Systems) (See Davis et al., Circ Res 94:1500-1506 (2004)).

[1] = test system: chick chorioallantoic membrane (CAM) blood vessel branch points; assay: Chick chorioallantoic membrane (CAM) model of angiogenesis; type: in vivo; settings: for generation of new blood vessels from existing vessels promoted: 10^−7-10^−9 M
Experimental: In vivo neovascularization was examined by methods described previously. 9-12 Ten-day-old chick embryos were purchased from SPAFAS (Preston, Conn.) and incubated at 37° C. with 55% relative humidity. A hypodermic needle was used to make a small hole in the shell concealing the air sac, and a second hole was made on the broad side of the egg, directly over an avascular portion of the embryonic membrane that was identified by candling. A false air sac was created beneath the second hole by the application of negative pressure at the first hole, causing the CAM to separate from the shell. […] Thyroid hormone, hormone analogs, FGF2 or control solvents, and inhibitors were then applied to the disks and the disks allowed to dry. The disks were then suspended in PBS and placed on growing CAMs. […] At 24 hours, the MAPK cascade inhibitor PD 98059 was also added to CAMs topically by means of the filter disks. […] The number of vessel branch points contained in a circular region equal to the area of each filter disk were counted. […] In addition, each experiment was performed 3 times. The resulting angiogenesis index is the mean±SEM of new branch points.

pKa of functional groups = type: physicochemical; settings: estimated
FGF2 cDNA = assay: RT-PCR of FGF2 in ECV304 cells; type: cell-based; settings: T4 10^−7 mol/L, apparent by 6 hours, further enhanced by 48 hours
Experimental: RNA (1 μg) was subjected to reverse transcription-polymerase chain reaction (RT-PCR) using the Access RT-PCR system (Promega). Total RNA was reverse transcribed into cDNA at 48° C. for 45 minutes, then denatured at 94° C. for 2 minutes. Second-strand synthesis and PCR amplification were performed for 40 cycles with denaturation at 94° C. for 30 s, annealing at 60° C. for 60 s, and extension at 68° C. for 120 s, with final ex-tension for 7 minutes at 68° C. after completion of all cycles. PCR primers for FGF2 were as follows: FGF2 sense strand 5′-[…]-3′ (SEQ ID NO:1), antisense strand 5′ […]-3′ (SEQ ID NO:2); the length of the PCR product was 734 bp. Primers for GAPDH included the sense strand 5′-[…]-3′ (SEQ ID NO:3), and antisense strand 5′-[…]-3′ (SEQ ID NO:4); the length of the PCR product was 218 bp. […] The target bands of the gel were quantified using LabImage software (Kapelan), and the value for [FGF2/GAPDH]X10 calculated for each time point.

SF763 glioblastoma cells = settings: 85 μM, 16 hours at 37° C., cited from earlier work
Morris 7800 hepatoma = settings: PTU 0.1%; cited from earlier work
[2] = test system: transplantable liver tumor; settings: cited from earlier work
[3] = test system: glioblastoma (GBM) patients; settings: induction of mild hypothyroidism; cited from earlier work
[4] = test system: matrigel plug angiogenesis; assay: Mouse matrigel model of angiogenesis (plug hemoglobin); type: in vivo, mice (C57BL/6NCr); settings: numbers are Tetrac analogs of Example 13; for Mean inhibition of angiogenesis (%) / Hemoglobin (mg/mL) ± SEM: FGF 100 ng + test substance 10 μg/plug; for Hemoglobin (mg/mL) ± SEM: n = 7-14
Experimental: Normal male mice (C57BL/6NCr) 6-8 weeks of age and weighing ˜20 g were purchased from Taconic farm. Animals were housed 4 per cage, in controlled conditions of temperature (20-24° C.); humidity (60-70%) and 12 hrs. light/dark cycle provided with food and water ad libitum. […] Aliquots of matrigel were placed into cold polypropylene tubes to prevent the matrigel from solidifying and the angiogenesis promoter added to matrigel with or without agonist. Mice were treated daily. Matrigel was subcutaneously injected as triple injection per animal at 100 μL/animal. At day 14 post plug implant all animals were killed in CO2 chamber and matrigel plugs were collected. Plug hemoglobin content was analyzed from three implants/mice (n=6 per group) to measure angiogenesis.
The matrigel plugs dissected from the mice were carefully stripped of any remaining peritoneum. The plugs were placed into 0.5 mL tube of ddH2O and homogenized for 5-10 min. […] Absorbance was read with a Microplate Manager ELISA reader at 540 nm. […] Hemoglobin concentration is a reflection of the number of blood vessels in the plugs.

M21 melanoma cells = settings: 20 ug/ml; doses of 0, 5, and 10 Gy; cited from earlier work

CO[C@@H]1[C@H](N(C)C(=O)c2ccccc2)C[C@H]2O[C@]1(C)n1c3ccccc3c3c4c(c5c6ccccc6n2c5c31)C(=O)NC4 [CGP41251]
effect on T4-induced ERK1/2 activation (in words) (ERK1/2): blocked

NC(=O)c1cccc(N)c1 [Compound 3AB, 3-aminobenzamide]
inhibition of PLDR (V-79 cells; Thraves et al.): ~70%
Dq value (V-79 cells; with 3AB, without 3.4): 1 Gy

N[C@@H](Cc1cc(I)c(Oc2ccc(O)c(I)c2)c(I)c1)C(=O)O [Compound T3, 3,5,3′-triiodo-L-thyronine]
FGF2 (pg/mL/10^6 cells) (ECV304 endothelial cells; T3 (0.01 μmol/L), 3 days, Control 27.7 ± 3.1): 98.8 ± 0.5 pg/mL/10^6 cells
increase in blood vessel branch formation ([1]; 1 nmol/L (1 nM) for 3 days, vs PBS): 2 fold
generation of new blood vessels from existing vessels promoted [1]: two- to three-fold

N[C@@H](Cc1cc(I)c(Oc2cc(I)c(O)c(I)c2)c(I)c1)C(=O)O [Compound T4, L-thyroxine]
pKa (pKa of functional groups; read-out: pKa of the COOH (carboxylic acid) group): ~2
pKa (pKa of functional groups; read-out: pKa of the NH2 (amino) group): ~9
appearance of phosphorylated ERK1/2 in cell nuclei (ERK1/2; T4 10^−7 mol/L): ≤ 15 min
time of maximal level of nuclear phosphorylated ERK1/2 (ERK1/2; T4 10^−7 mol/L): 30 min
effect on MAPK activation caused by FGF2 (in words) (ERK1/2; T4 10^−7 mol/L + FGF2 10 ng/mL, 15-minute co incubation): enhanced the MAPK activation caused by FGF2
abundance of FGF2 cDNA, corrected for GAPDH content (in words) (FGF2 cDNA): increase in abundance of FGF2 cDNA
generation of new blood vessels from existing vessels promoted [1]: two- to three-fold
effect on the angiogenic effect of sub-maximal FGF2 (in words) ([1]; T4 0.05 μmol/L + FGF2 0.5 μg/mL): enhanced

CC(C)[C@H]1C(=O)N[C@@H](CCCN=C(N)N)C(=O)NCC(=O)N[C@@H](CC(=O)O)C(=O)N[C@H](Cc2ccccc2)C(=O)N1C [EMD121974]
increase of α (SF763 glioblastoma cells): 4.4 fold
α component in the LQ survival equation (SF763 glioblastoma cells; without approximately 0.04): ~0.18 Gy^−1

COc1cccc(-c2cc(=O)c3ccccc3o2)c1N [PD 98059]
effect on T4-induced ERK1/2 activation (in words) (ERK1/2): inhibited
FGF2 (pg/mL/10^6 cells) (ECV304 endothelial cells; T3 + PD 98059 (2 μmol/L)): 28.4 ± 3.2 pg/mL/10^6 cells
FGF2 (pg/mL/10^6 cells) (ECV304 endothelial cells; T3 + PD 98059 (20 μmol/L)): 21.7 ± 3.5 pg/mL/10^6 cells
FGF2 (pg/mL/10^6 cells) (ECV304 endothelial cells; T4 + PD 98059 (2 μmol/L)): 26.5 ± 4.5 pg/mL/10^6 cells
FGF2 (pg/mL/10^6 cells) (ECV304 endothelial cells; T4 + PD 98059 (20 μmol/L)): 23.2 ± 4.8 pg/mL/10^6 cells
effect on angiogenesis stimulated by T4 and T3 together (in words) ([1]; PD 98059 3 μmol/L, T4 0.1 μmol/L and T3 1 nmol/L): completely blocked; also recorded: fully inhibited
effect on FGF2 stimulation of branch formation (in words) ([1]; PD 98059, FGF2 1 μg/mL): effectively blocked

CCCc1cc(=O)[nH]c(=S)[nH]1 [PTU, 6-N-propyl-2-thiouracil]
increase in survival (Morris 7800 hepatoma): approximately 1.3 fold
time needed to grow from approximately 270 mm^3 to 900 mm^3 ([2]; 10 Gy of x-rays plus 0.05% PTU in the drinking water, control 6.2, x-rays alone 11.2): 17.8 days
growth rate with PTU alone (in words) ([2]; in vivo): no difference in growth rate from control neoplasms
effect of the presence of PTU on the effect of T4 (in words) ([1]; filter disks pretreated with 1 mmol/L PTU): did not reduce the effect of T4
improvement of the duration of survival [3]: 3 fold

CC(C)[Si](OC(=O)Cc1cc(I)c(Oc2cc(I)c(O)c(I)c2)c(I)c1)(C(C)C)C(C)C [Tetrac analog 5, Triisopropylsilyl-2-(4-(4-hydroxy-3,5-diiodophenoxy)-3,5-diiodophenyl)acetate]
Mean inhibition of angiogenesis (%) [4]: 104 ± 14%
Hemoglobin (mg/mL) ± SEM [4]: 0.2 ± 0.1 mg/mL
inhibition of FGF-induced angiogenesis (in words) [4]: strong
melting point: 146 °C
Mean % Inhibition ([1]; FGF (1.25 μg/ml) + test substance, 10 μg/plug per footnote, numbers are Tetrac analogs of Example 13): 75 ± 19%
Mean Branch points ([1]; FGF (1.25 μg/ml) + test substance, 10 μg/plug per footnote, numbers are Tetrac analogs of Example 13, n = 8, PBS 73 ± 6, FGF 130 ± 11): 87 ± 11

O=C(Cc1cc(I)c(Oc2cc(I)c(OCC3CO3)c(I)c2)c(I)c1)NC1CCCCC1 (centres unmarked) [Tetrac analog 6, N-cyclohexyl-2-(4-(3,5-diiodo-4-(oxiran-2-ylmethoxy)phenoxy)-3,5-diiodophenyl)acetamide]
Mean inhibition of angiogenesis (%) [4]: 80 ± 16%
Hemoglobin (mg/mL) ± SEM [4]: 0.7 ± 0.1 mg/mL
inhibition of FGF-induced angiogenesis (in words) [4]: strong
melting point: 242 °C
inhibition of angiogenesis in the CAM assay (in words) ([1]; numbers are Tetrac analogs of Example 13): not as strong as compounds 3, 5, 7, and 9

O=C(Cc1cc(I)c(Oc2cc(I)c(OCCCl)c(I)c2)c(I)c1)NC1CCCCC1 [Tetrac analog 15, 2-(4-(4-(2-chloroethoxy)-3,5-diiodophenoxy)-3,5-diiodophenyl)-N-cyclohexylacetamide]
melting point: 263 °C

CNTO 95: human anti-αv integrin monoclonal antibody
increase in sensitivity (in vitro apoptosis) by a factor of (M21 melanoma cells): 2 fold
